{"source": "patent US20260256747A1", "about": "“ARYL-TRIAZOLYL AND RELATED GPR84 ANTAGONISTS AND USES THEREOF” (Liminal BioSciences Limited, priority 2022, published 2026)", "origin": "cited, not measured here", "system": "mouse dextran sodium sulfate-induced chronic inflammatory bowel disease model", "conditions": "once-daily doses of 3 and 10 mg/kg; efficacy similar to sulfasalazine; cited from earlier work"}
{"compound": "O=c1nc(OC[C@@H]2COCCO2)cc2n1CCc1cc(C#CC3CC3)ccc1-2", "note": "[GLPG1205]", "values": [{"measurement": "disease activity index score", "result": "reduced"}, {"measurement": "neutrophil infiltration", "result": "reduced"}]}
